In brackets after ≈: the same amount, converted by molar mass. Like-named read-outs stand apart in the source and are kept apart here.
Columns and labels:
M. avium = assay: MIC against M. avium; assay type: cell-based; conditions: Mycobacterium avium, read-out: M. avium MIC
Vero cells = assay: Cytotoxicity on Vero cells; assay type: cell-based; conditions: for SI (selectivity index): SI = IC50(Vero)/MIC
M. tb V4207/DS = assay: microbe, parasite or virus in culture; assay type: cell-based; conditions: Mycobacterium tuberculosis, read-out: M. tb MIC V4207/DS
M. abs = assay: MIC against M. abs; assay type: cell-based, Mycobacterium abscessus; conditions: Mycobacteroides abscessus, read-out: M. abs MIC
[1] = Chlorocebus sabaeus, Vero, read-out: IC50 Vero cells, cytotoxicity, Vero cells
[2] = read-out: IC50 Vero cells, cytotoxicity, Vero cells

Compound	MIC (M. avium) [µM]	IC50 (Vero cells; [1]) [µM]	SI (selectivity index) (Vero cells)	MIC (M. tb V4207/DS) [µM]	MIC (M. abs) [µM]	IC50 (Vero cells; [2]) [µM]
O=C(NC1CCCCCCC1)c1ccc2ccccc2c1 [13c, N-Cyclooctyl-2-naphthamide]	> 227	≥ 227	≥32	7.11 (≈ 2 µg/mL)	> 227	–
O=C(NC12CC3CC(CC(C3)C1)C2)c1cc(=O)c2c(Br)cccc2[nH]1 [8i, N-(1-Adamantanyl)-5-bromo-4-oxo-1,4-dihydroquinoline-2-carboxamide]	> 159	–	4	9.97 (≈ 4 µg/mL)	> 159	–
O=C(Nc1nc(-c2ccc(Cl)cc2Cl)cs1)C12CC3CC(CC(C3)C1)C2 [18b, N-(4-(2,4-Dichlorophenyl)thiazol-2-yl)adamantane-1-carboxamide]	> 157	9.82 to 39.9	1	9.82 (≈ 4 µg/mL)	> 157	9.82
O=C(NC12CC3CC(CC(C3)C1)C2)c1ccc2ccccc2c1 [13d, N-(1-Adamantanyl)-2-naphthamide]	> 209	≥ 227	≥64	6.55 to 13.1 (≈ 2 to 4 µg/mL)	> 209	≥ 419
